In ChEMBL document CHEMBL1201862, “PubChem BioAssay data set” (2004):
Active and inactive are the calls of the source.

What was measured:
[1] = target: T1, Voltage-gated N-type calcium channel alpha-1B subunit/Amyloid beta A4 precursor protein-binding family A member 1 (Homo sapiens, UniProt Q00975+Q02410); type: protein assay
[2] = target: T1, Voltage-gated N-type calcium channel alpha-1B subunit/Amyloid beta A4 precursor protein-binding family A member 1; type: protein assay; remark: listed apart in the source
[3] = system: H9c2; test: cells; type: functional, cell-based; settings: Rattus norvegicus, H9c2, Myocardium;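 also: confirmatory concentration-response retest of ultra-high-throughput screening hits for modulation of myocardial damage; cell death induced by hydrogen peroxide oxidative stress; compound pretreatment for 60 min then peroxide exposure for 2 h; potency is for protecting the cells against peroxide damage rather than for killing them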
[4] = target: T2, Probable nicotinate-nucleotide adenylyltransferase (Staphylococcus aureus (strain N315), UniProt P65502); type: functional, Staphylococcus aureus subsp. aureus N315;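 as to IC50 Mean: confirmatory dose-response retesting of NadD inhibitor hits first found in an ultra-high-throughput screen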
T2 sequence (P65502 whole entry): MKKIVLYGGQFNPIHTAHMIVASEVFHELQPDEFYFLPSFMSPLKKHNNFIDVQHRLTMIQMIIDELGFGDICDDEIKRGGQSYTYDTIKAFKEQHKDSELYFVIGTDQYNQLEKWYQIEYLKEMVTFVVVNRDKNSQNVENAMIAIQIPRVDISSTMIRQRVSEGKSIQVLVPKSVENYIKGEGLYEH

[5] = target: T2, Probable nicotinate-nucleotide adenylyltransferase; type: functional, Staphylococcus aureus subsp. aureus N315; settings: read-out: IC50_Mean
[6] = target: T3, Caspase-6 (Homo sapiens, UniProt P55212); test: human caspase-6 inhibitors, dose response, biochemical, VEID-R110 fluorescence, cherry-pick (AID 720632)
T3 sequence (P55212 whole entry): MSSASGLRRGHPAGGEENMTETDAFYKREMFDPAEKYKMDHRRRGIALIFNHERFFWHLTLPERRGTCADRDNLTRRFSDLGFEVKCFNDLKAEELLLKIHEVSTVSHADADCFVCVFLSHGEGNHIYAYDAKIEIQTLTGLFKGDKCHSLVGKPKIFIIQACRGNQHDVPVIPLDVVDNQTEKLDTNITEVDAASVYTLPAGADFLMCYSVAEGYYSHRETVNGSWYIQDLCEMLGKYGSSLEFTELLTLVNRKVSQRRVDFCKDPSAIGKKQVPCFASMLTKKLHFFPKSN

[7] = HeLa cell cytotoxicity, dose response, cytotoxicity control for MgcRacGAP inhibitor project (AID 624300); type: functional
[8] = target: T4, Rac GTPase-activating protein 1 (Homo sapiens, UniProt Q9H0H5); test: MgcRacGAP GTPase-activating activity inhibitors, confirmation, biochemical, ADP Hunter fluorescence, primary and confirmatory (AID 624330); type: functional
T4 sequence (Q9H0H5 whole entry): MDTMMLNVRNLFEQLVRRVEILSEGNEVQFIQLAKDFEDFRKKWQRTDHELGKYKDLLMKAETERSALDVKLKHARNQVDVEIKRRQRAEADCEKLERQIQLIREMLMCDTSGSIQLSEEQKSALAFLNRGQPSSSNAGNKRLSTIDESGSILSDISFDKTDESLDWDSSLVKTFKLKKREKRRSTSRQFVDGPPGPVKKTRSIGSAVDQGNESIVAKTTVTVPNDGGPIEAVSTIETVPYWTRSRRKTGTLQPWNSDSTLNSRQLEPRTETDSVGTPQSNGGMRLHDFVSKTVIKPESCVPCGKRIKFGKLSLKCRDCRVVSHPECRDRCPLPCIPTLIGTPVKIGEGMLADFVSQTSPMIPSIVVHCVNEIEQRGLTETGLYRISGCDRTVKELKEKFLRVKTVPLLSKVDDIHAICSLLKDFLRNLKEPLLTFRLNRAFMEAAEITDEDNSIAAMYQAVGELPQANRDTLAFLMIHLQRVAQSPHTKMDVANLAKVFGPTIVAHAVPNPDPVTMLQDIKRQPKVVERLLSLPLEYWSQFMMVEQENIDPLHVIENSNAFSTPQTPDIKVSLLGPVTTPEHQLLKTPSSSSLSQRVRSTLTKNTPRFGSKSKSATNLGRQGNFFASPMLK

[9] = inhibitors of clade B AD8 Env fusion, dose response, cell-based, cherry-pick (AID 652062); type: functional;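 also: luciferase signal from cell-cell fusion driven by HIV-1 clade B AD8 Env; potency is for inhibitors of fusion seen as a drop in luminescence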
[10] = Luminescence Cell-Based Dose Response HTS to Identify Inhibitors of 5'UTR Stem-Loop Driven Prion Protein mRNA Translation in H4 Neuroglioblastoma Cells. [Related pubchem assays: 1827 (Project Summary), 1813 (Primary HTS)]; type: functional
[11] = cells; type: functional, cell-based
[12] = target: T5, Trace amine-associated receptor 1 (Homo sapiens, UniProt Q96RJ0); test: Fluorescence-based cell-based high throughput dose response assay to identify agonists of the human trace amine associated receptor 1 (TAAR1).; type: functional
T5 sequence (Q96RJ0 whole entry): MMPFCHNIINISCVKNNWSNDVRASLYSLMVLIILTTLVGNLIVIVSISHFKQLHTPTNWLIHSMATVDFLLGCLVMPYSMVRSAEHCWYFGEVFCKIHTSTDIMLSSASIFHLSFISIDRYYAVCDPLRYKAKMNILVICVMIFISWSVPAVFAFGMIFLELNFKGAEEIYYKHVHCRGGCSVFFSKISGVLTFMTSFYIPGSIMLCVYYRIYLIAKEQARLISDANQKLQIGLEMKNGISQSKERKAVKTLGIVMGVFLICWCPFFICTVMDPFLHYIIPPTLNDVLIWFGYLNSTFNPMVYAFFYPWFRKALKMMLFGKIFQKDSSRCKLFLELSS

[13] = target: T5, Trace amine-associated receptor 1; test: Counterscreen for agonists of the human trace amine associated receptor 1 (hTAAR1): Fluorescence-based cell-based high throughput dose response assay to identify hTAAR1 agonist that also desensitize TAAR1 receptor response.; type: functional
[14] = cells; type: functional, cell-based; remark: listed apart in the source
[15] = A549 cell cytotoxicity, dose response, cytotoxicity control, plate reader, cherry-pick, antagonist series (AID 743412); type: functional, cell-based
[16] = HepG2 cell cytotoxicity, dose response, cytotoxicity control, plate reader, cherry-pick, antagonist series (AID 743416); type: functional, cell-based
[17] = LGR2 antagonists, dose response, cell-based, HEK293, CRE-luciferase reporter, cherry pick, set 2 (AID 743343); type: functional;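 also: transfected cells were stimulated with diluted bursicon conditioned medium after compound addition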
[18] = MC4R antagonists, dose response, counter-screen for LGR2 antagonist project, cell-based, plate reader, cherry pick (AID 743444); type: functional;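 also: transfected HEK 293 cells stimulated with alpha-MSH peptide; potency of inhibitors of the alpha-MSH evoked signal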
[19] = Late stage assay provider results from the probe development effort to identify selective inhibitors of heat shock protein 90 (HSP90): Absorbance-based cell proliferation assay in SKBR3 cells.; type: functional; settings: SK-BR-3
[20] = Late stage assay provider results from the probe development effort to identify selective inhibitors of heat shock protein 90 (HSP90): Absorbance-based cell proliferation assay in MCF7 cells.; type: functional
[21] = P. falciparum 3D7-ScDHODH growth inhibitors, dose response, SYBR Green, dry powder samples (AID 1159570); type: functional, cell-based;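 also: parasite growth measured after 72 hours of compound exposure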
[22] = P. falciparum Dd2 growth inhibitors, dose response, SYBR Green, cherry-picked samples (AID 1159567); type: functional, cell-based
[23] = P. falciparum Dd2 growth inhibitors, dose response, SYBR Green, dry powder samples (AID 1159566); type: functional, cell-based;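 also: potency for growth inhibition with lower SYBR green DNA signal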
[24] = HepG2 cell cytotoxicity, dose response, cytotoxicity control, cherry-picked samples (AID 1159577); type: functional, cell-based
[25] = P. falciparum ATP4 D1247Y mutant growth inhibitors, dose response, NITD609-resistant line, SYBR Green, dry powder (AID 1159571); type: functional, cell-based;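 also: parasites synchronized at ring stage by sorbitol before testing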
[26] = target: Ephrin type-A receptor 4 (Mus musculus, UniProt Q03137); test: inhibitors of EphA4 binding to KYL peptide, primary screen, biochemical, colorimetric, mouse EphA4 (AID 689); type: functional
Chain of Ephrin type-A receptor 4 (Q03137 whole entry): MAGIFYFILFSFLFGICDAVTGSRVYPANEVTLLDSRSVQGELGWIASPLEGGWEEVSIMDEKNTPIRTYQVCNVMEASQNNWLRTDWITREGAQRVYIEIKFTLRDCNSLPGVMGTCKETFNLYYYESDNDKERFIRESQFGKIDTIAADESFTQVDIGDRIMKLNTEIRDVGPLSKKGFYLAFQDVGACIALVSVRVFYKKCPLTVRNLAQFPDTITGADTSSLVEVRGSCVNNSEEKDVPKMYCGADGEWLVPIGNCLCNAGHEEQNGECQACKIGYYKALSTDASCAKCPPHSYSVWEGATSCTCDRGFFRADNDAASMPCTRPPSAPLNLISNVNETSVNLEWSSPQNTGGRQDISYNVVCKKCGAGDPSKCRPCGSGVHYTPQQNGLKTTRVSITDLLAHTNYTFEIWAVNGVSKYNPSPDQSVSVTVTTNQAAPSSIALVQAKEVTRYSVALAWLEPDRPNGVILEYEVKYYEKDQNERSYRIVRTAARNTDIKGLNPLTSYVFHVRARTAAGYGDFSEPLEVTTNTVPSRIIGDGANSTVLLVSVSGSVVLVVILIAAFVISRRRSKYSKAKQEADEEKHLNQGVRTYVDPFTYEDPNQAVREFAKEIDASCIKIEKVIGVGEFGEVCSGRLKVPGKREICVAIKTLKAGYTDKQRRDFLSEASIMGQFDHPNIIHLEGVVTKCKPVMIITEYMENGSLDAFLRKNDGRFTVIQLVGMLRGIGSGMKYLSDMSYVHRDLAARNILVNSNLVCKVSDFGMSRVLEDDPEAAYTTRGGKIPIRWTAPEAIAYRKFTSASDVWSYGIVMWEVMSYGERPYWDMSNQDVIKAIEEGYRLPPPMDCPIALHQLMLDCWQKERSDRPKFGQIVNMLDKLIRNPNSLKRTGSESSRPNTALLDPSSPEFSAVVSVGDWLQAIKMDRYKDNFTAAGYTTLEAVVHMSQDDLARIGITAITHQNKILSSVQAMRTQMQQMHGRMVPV

[27] = target: T6, Adenosylmethionine-8-amino-7-oxononanoate aminotransferase (Mycobacterium tuberculosis, UniProt P9WQ81); test: Mycobacterium tuberculosis BioA enzyme inhibitor Measured in Biochemical System Using Plate Reader - 2163-02_Inhibitor_Dose_CherryPick_Activity.; type: functional, Mycobacterium tuberculosis UT205
T6 sequence (P9WQ81 whole entry): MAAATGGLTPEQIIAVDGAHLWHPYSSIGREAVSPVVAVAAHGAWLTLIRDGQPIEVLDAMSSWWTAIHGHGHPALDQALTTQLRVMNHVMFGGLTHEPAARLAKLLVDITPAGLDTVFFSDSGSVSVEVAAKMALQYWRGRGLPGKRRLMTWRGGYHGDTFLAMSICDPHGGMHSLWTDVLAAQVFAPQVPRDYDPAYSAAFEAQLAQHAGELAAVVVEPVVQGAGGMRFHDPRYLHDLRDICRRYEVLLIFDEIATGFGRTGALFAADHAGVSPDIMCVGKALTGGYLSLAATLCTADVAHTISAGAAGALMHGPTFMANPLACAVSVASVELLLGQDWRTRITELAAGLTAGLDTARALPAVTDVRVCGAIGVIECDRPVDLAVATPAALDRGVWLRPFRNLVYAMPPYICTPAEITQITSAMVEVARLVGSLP

[28] = target: T7, DNA repair protein RAD52 homolog (Homo sapiens, UniProt P43351); type: functional, biochemical
T7 sequence (P43351 whole entry): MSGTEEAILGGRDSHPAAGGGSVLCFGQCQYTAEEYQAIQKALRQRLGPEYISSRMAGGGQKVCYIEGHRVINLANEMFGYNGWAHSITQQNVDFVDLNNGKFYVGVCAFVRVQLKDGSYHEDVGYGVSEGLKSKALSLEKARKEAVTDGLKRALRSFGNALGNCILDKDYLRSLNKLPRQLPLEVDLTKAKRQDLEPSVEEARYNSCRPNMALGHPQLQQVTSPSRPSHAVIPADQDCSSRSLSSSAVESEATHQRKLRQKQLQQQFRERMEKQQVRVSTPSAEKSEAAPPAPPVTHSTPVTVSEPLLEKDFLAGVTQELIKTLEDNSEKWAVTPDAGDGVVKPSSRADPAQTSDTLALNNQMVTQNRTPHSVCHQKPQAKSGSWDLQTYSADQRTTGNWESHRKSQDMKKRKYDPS

[29] = target: Dual specificity tyrosine-phosphorylation-regulated kinase 1A (Rattus norvegicus, UniProt Q63470); type: biochemical, Homo sapiens

T1 sequence (Q00975 whole entry): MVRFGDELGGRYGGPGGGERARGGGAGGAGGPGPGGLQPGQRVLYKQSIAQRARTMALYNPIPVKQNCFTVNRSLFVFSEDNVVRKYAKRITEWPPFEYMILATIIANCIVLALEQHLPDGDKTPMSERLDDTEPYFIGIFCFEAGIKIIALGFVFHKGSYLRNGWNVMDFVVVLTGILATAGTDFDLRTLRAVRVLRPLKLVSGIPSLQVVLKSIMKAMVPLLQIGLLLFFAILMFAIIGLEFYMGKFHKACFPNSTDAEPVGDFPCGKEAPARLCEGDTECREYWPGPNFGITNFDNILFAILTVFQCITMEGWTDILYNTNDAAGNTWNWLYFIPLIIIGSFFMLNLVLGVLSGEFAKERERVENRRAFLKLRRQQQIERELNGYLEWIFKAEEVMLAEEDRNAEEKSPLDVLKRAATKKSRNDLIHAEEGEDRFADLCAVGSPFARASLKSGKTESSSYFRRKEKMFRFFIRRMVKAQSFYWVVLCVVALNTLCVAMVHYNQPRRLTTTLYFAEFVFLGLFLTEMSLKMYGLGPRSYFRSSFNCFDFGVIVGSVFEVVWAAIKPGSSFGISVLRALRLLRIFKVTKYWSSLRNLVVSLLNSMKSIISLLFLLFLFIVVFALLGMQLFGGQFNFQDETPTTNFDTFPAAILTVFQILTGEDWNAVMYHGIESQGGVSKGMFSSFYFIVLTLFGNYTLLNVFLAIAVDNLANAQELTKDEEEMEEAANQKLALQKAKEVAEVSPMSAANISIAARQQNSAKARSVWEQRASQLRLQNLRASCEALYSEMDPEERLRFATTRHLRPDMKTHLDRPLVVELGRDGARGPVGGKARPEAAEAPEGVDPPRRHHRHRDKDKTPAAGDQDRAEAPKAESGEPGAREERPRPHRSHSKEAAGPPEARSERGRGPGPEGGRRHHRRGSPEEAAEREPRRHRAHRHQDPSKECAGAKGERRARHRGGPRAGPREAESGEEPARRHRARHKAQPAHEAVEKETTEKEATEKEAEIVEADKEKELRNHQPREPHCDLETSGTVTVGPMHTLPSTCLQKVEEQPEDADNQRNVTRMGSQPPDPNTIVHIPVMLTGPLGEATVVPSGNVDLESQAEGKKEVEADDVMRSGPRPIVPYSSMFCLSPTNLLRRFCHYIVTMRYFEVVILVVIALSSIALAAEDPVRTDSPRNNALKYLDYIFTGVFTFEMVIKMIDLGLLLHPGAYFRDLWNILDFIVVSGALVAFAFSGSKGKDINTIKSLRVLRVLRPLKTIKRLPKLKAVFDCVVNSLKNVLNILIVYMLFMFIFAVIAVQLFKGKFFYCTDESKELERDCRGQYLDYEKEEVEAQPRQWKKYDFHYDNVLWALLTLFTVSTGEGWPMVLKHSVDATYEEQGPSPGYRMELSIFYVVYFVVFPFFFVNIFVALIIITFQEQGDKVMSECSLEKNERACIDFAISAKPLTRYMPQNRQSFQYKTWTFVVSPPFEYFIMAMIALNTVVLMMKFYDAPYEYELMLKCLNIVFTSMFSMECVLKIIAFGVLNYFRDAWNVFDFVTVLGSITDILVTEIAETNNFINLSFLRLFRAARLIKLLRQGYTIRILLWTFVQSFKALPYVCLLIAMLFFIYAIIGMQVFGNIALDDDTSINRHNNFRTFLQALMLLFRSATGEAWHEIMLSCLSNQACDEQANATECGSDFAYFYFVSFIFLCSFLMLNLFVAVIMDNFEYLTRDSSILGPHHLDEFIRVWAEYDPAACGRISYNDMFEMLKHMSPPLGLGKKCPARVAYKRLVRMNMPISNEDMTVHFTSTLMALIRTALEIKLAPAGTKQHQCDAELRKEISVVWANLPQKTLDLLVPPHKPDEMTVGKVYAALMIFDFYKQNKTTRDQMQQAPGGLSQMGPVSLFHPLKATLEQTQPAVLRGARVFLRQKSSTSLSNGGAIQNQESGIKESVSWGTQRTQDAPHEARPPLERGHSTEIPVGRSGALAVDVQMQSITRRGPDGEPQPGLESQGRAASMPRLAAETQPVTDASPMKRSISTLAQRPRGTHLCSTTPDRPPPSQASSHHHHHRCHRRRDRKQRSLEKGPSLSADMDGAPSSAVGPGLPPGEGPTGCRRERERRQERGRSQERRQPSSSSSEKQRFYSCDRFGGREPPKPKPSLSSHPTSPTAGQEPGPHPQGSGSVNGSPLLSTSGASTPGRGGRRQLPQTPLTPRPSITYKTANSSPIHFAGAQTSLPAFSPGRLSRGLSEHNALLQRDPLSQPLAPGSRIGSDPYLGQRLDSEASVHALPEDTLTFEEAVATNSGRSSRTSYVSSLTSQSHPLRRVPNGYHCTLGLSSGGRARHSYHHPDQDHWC
T1 sequence (Q02410 whole entry): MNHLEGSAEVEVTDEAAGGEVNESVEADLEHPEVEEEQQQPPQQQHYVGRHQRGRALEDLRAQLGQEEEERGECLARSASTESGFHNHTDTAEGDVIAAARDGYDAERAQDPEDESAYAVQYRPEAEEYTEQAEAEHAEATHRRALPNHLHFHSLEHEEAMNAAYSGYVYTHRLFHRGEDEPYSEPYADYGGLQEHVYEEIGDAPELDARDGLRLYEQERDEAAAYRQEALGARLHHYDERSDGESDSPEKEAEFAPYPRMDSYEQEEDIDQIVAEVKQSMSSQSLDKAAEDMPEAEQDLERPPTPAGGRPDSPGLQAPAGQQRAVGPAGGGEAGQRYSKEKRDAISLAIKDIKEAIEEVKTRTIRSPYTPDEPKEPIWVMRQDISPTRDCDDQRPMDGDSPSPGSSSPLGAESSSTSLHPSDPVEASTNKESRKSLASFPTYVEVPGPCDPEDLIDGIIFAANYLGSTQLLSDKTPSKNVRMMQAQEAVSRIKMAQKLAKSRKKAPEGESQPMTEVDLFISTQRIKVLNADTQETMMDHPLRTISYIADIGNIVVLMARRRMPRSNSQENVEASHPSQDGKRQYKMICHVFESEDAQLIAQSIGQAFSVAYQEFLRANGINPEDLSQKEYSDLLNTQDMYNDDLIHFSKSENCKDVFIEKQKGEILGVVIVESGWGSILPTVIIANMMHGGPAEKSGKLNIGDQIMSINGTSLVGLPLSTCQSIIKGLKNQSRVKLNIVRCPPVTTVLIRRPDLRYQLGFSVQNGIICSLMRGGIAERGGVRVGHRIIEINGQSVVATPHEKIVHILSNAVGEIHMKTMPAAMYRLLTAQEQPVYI

Structure (SMILES): Cn1c2ccccc2c2cc(/C=N/NC(=O)c3cc(O)ccc3O)ccc21
- IC50 [1]: 15.2 µM (active)
- IC50 [2]: 4.94 µM (active)
- IC50 [3]: > 79 µM (inactive)
- IC50 [4]: 18 µM (active)
- IC50 [5]: 37.3 µM (active)
- AC50 [6]: 43.1 µM (active)

Structure (SMILES): CCc1nc(Nc2ccc(O)cc2)c2oc3ccccc3c2n1
- CC50 [7]: 87.6 µM (active)
- IC50 [8]: 18.2 µM (active)

Structure (SMILES): CCCCS(=O)(=O)N1CCN(C(=O)C(=O)c2cccc(C(F)(F)F)c2)CC1
- AC50 [9]: 49.5 µM (active)

Structure (SMILES): Cc1ccc(Nc2nc(N)c3ccccc3n2)cc1C
- EC50 [10]: 7.32 µM (active)
- IC50 [11]: > 29.9 µM (inactive)
- EC50 [12]: 4.53 µM (active)
- IC50 [13]: 8.34 µM (active)
- EC50 [14]: > 29.9 µM (inactive)
- AC50 [15]: 34 µM (active)
- AC50 [16]: 2.36 µM (active)
- AC50 [17]: 2.9 µM (active)
- AC50 [18]: 5 µM (active)

Structure (SMILES): CCCCc1ccc(NC(=O)c2cc(=O)c(OC)c[nH]2)cc1
- IC50 [19]: > 100 µM (inactive)
- IC50 [20]: > 100 µM (inactive)

Structure (SMILES): COc1ccc2c3c([nH]c2c1)[C@H](CO)N(S(=O)(=O)c1ccc(C)cc1)CC31CCN(C(=O)Cc2cccnc2)CC1
- AC50 [21]: 0.54 µM (active)
- AC50 [22]: 1.19 µM (active)
- AC50 [23]: 0.332 µM (active)
- AC50 [24]: > 39 µM (inactive)
- AC50 [25]: 0.265 µM (active)

Structure (SMILES): Fc1ccc(-c2cc3nc4c(c(N5CCOCC5)n3n2)CCCC4)cc1
- IC50 [26]: > 100 µM (not active)

Structure (SMILES): O=C1OC(=O)/C(=C\NC23CC4CC(CC(C4)C2)C3)C=C1Br
- IC50 [19]: 12.9 µM (inactive)
- IC50 [20]: 2.6 µM (active)

Structure (SMILES): COc1ccc(NC(=O)N(C)C[C@H]2Oc3ccc(NC(=O)c4ccncc4)cc3C(=O)N([C@H](C)CO)C[C@@H]2C)cc1
- IC50 [4]: 27.8 µM (active)
- IC50 [5]: 40.4 µM (active)

Structure (SMILES): CN1C(=O)c2cc(NC(=O)c3ccc4c(c3)OCO4)ccc2OC[C@@H]2O[C@@H](CC(=O)O)CC[C@@H]21
- AC50 [24]: 38.5 µM (active)

Structure (SMILES): COc1cc2c3cc1Oc1cc(ccc1O)C[C@@H]1c4c(cc(OC)c(O)c4Oc4cccc(c4)C[C@@H]3N(C)CC2)CC[N+]1(C)C
- AC50 [27]: 15.4 µM (active)
- AC50 [28]: 8.2 µM (active)

Structure (SMILES): N#Cc1sc2nc(-c3cccs3)cc(-c3ccccc3)c2c1N
- IC50 [26]: > 100 µM (not active)

Structure (SMILES): C/N=C1/S/C(=C\c2ccc(O)c(Br)c2)C(=O)N1C
- AC50 [29]: 0.194 µM (active)
- CC50 [7]: 74.9 µM (active)
- IC50 [8]: 42 µM (active)

Structure (SMILES): COc1ccccc1-c1ccc2c(c1)[C@H]1[C@H](CCN1C(=O)C1CCC1)[C@H](CO)N2
- AC50 [22]: 5.25 µM (active)
- AC50 [24]: 30.5 µM (active)

Structure (SMILES): COc1ccc2c3c(n(C)c2c1)[C@@H](CO)N(C(=O)C1CC1)CC31CN(C(=O)Nc2cccc(F)c2)C1
- AC50 [21]: 0.209 µM (active)
- AC50 [22]: 0.692 µM (active)
- AC50 [23]: 0.196 µM (active)
- AC50 [25]: 0.164 µM (active)

Structure (SMILES): COc1ccc2oc(=O)c(Br)cc2c1
- IC50 [19]: 80.2 µM (inactive)
- IC50 [20]: > 100 µM (inactive)

Structure (SMILES): CCC(=O)N1CC[C@@H]2[C@H]1c1cc(-c3cccc(F)c3)ccc1N(C)[C@H]2CO
- AC50 [27]: 5.53 µM (active)

Structure (SMILES): Cc1cc(N(CCCl)CCCl)ccc1C=NNC(=O)Cc1cc(=O)oc2cc(O)ccc12
- IC50 [4]: 8.75 µM (active)
- IC50 [5]: 28.7 µM (active)

Structure (SMILES): CCOc1ccccc1N/C=C1\C(=O)OC(=O)c2ccccc21
- IC50 [19]: > 100 µM (inactive)
- IC50 [20]: > 100 µM (inactive)

Structure (SMILES): O=C(Nc1cccnc1)c1ccc(N2CCCC2)c([N+](=O)[O-])c1
- AC50 [27]: 1.19 µM (active)

Structure (SMILES): COc1cc(/C=C2\SC(Nc3ccccc3)=NC2=O)cc(Cl)c1O
- AC50 [29]: 7.03 µM (active)
- CC50 [7]: 100 µM (active)
- IC50 [8]: 55.7 µM (active)
